Laboratory results: PMC4359187 (Drugs in R&D, 2015)

Columns and labels:
[1] = tested on: treatment-naïve HIV-1-infected patients; experiment: Continuous Holter 12-lead ECG; format: in vivo, human; conditions: modified saquinavir/ritonavir regimen
[2] = tested on: hERG channels heterologously expressed in HEK293 cells; conditions: cited from earlier work
[3] = tested on: HIV-positive patients; conditions: saquinavir monotherapy, 84 patients; cited from earlier work

CC(C)(C)NC(=O)[C@@H]1C[C@@H]2CCCC[C@@H]2CN1C[C@@H](O)[C@H](Cc1ccccc1)NC(=O)[C@H](CC(N)=O)NC(=O)c1ccc2ccccc2n1 [Saquinavir, saquinavir]
Correlation between maximum ∆QTcFdense and C max of saquinavir [1]: No strong correlation | Blockage of hERG channels ([2]; hERG heterologously expressed in HEK293 cells): dose-dependent blockage | Effect on hERG trafficking ([2]; in vitro): inhibitory effects | Clinical EC50 value, C min [3]: 0.05 µg/mL
